# Calls of active or inactive are those of the source. How the calls were made is not given here.
# Tested on: CCHF vOTU
# Assay: CCHF vOTU protease inhibitors, late-stage follow-up, biochemical, fluorescence, Ub-R110 substrate (AID 743474)
# Details: Recombinant CCHF vOTU, Ub-R110 fluorescence cleavage, active compounds read high
smiles,measurement,setting,value
O=C1Cc2ccccc2C(=O)N1CCc1ccccc1,inhibition,"Assay 1, Ub-R110 substrate, at 1.51 µM",3.44% (inactive)
same,inhibition,"Assay 2, Ub-R110 substrate, at 3.02 µM",10.7% (inactive)
O=C(O)CSc1cc(NS(=O)(=O)c2cccc([N+](=O)[O-])c2)c2ccccc2c1O,inhibition,"Assay 1, Ub-R110 substrate, at 7.61 µM",0.5% (inactive)
NS(=O)(=O)c1ccc(NC2=CC(=O)C(=O)c3ccccc32)cc1,inhibition,"Assay 1, Ub-R110 substrate, at 11.51 µM",21.1%
COC(CNC(=O)c1ccc2c3c(onc13)-c1ccccc1C2=O)OC,inhibition,"Assay 1, Ub-R110 substrate, at 24.19 µM",52.5%
Cc1ccc2c(c1C)-c1c(ccc(C)c1C)C(=O)C2=O,inhibition,"Assay 1, Ub-R110 substrate, at 18.9 µM",62.5%
O=C(NC1=C(NC2CCS(=O)(=O)C2)C(=O)c2ccccc2C1=O)c1ccccc1 (stereo not drawn),inhibition,"Assay 1, Ub-R110 substrate, at 14.2 µM",49.8%
COC1=C(N)C(=O)c2nc(C)ccc2C1=O,inhibition,"Assay 1, Ub-R110 substrate, at 4.98 µM",16.6% (inactive)
O=C(/C=C/c1ccc(O)cc1)c1ccc(NC2=C(N3CCCCC3)C(=O)c3ccccc3C2=O)cc1,inhibition,"Assay 1, Ub-R110 substrate, at 10.17 µM",23.2%
COc1ccc2noc3c2c1C(=O)c1ccccc1-3,inhibition,"Assay 1, Ub-R110 substrate, at 6.28 µM",22.7%
O=C1C=C(Nc2ccccc2)c2ccccc2C1=O,inhibition,"Assay 1, Ub-R110 substrate, at 15.55 µM",21.8%
O=C1Cc2ccccc2C(=O)N1Cc1ccccc1,inhibition,"Assay 1, Ub-R110 substrate, at 1.31 µM",49.5%
Cc1ccc(N2C(=O)[C@@H]3[C@H](C2=O)C2c4ccccc4C=CN2[C@@H]3C(=O)c2ccco2)cc1 (stereo partly drawn),inhibition,"Assay 1, Ub-R110 substrate, at 5.2 µM",33.9%
CCc1cc[n+](C2=C(NS(=O)(=O)c3cccs3)C(=O)c3ccccc3C2=O)cc1,inhibition,"Assay 1, Ub-R110 substrate, at 14.16 µM",64.3%
O=C(OCc1nnc(-c2ccccc2)o1)c1ccc([N+](=O)[O-])s1,inhibition,"Assay 1, Ub-R110 substrate, at 26.04 µM",20.8%
NS(=O)(=O)c1ccc(NC(=O)COC(=O)c2ccc([N+](=O)[O-])s2)cc1,inhibition,"Assay 1, Ub-R110 substrate, at 29.01 µM",13.3% (inactive)
CC1CCCC(NC(=O)COC(=O)c2ccc([N+](=O)[O-])s2)C1C (stereo not drawn),inhibition,"Assay 1, Ub-R110 substrate, at 31.32 µM",14.7% (inactive)
Cc1ccccc1-c1cc2c(nn1)-c1ccccc1C2=O,inhibition,"Assay 1, Ub-R110 substrate, at 2.23 µM",3.27% (inactive)
same,inhibition,"Assay 2, Ub-R110 substrate, at 4.46 µM",15.3% (inactive)
O=C1OC(Nc2cc(Br)cc3cccnc23)c2ccccc21 (stereo not drawn),inhibition,"Assay 1, Ub-R110 substrate, at 5.44 µM",6% (inactive)
O=S(=O)(Nc1cc2nc3ccccc3nc2n1Cc1ccccc1)c1ccc(Cl)cc1,inhibition,"Assay 1, Ub-R110 substrate, at 7.6 µM",5% (inactive)
O=C(COC(=O)c1ccc([N+](=O)[O-])s1)Nc1ccc(F)cc1,inhibition,"Assay 1, Ub-R110 substrate, at 26.34 µM",21.3%
O=C(NC1=CC(=O)c2ccccc2C1=O)c1ccccc1,inhibition,"Assay 1, Ub-R110 substrate, at 12.37 µM",55.6%
O=C(COC(=O)c1ccc([N+](=O)[O-])s1)NCc1ccc(F)cc1,inhibition,"Assay 1, Ub-R110 substrate, at 40.58 µM",30.5%
CCC(CNc1cc(OC)cc2cccnc12)NC1CCCCC1 (stereo not drawn),inhibition,"Assay 1, Ub-R110 substrate, at 6.96 µM",3.8% (inactive)
Cn1nc(-c2ccccn2)nc2c(=O)n(C)c(=O)nc1-2,inhibition,"Assay 1, Ub-R110 substrate, at 1.16 µM",97.3%
CCOC(=O)N=Nc1c2ccccc2c2nc3no[nH]c3nc12,inhibition,"Assay 1, Ub-R110 substrate, at 7.75 µM",33.2%
Cc1c(Cl)cnc(NC(=O)COC(=O)c2ccc([N+](=O)[O-])s2)c1Cl,inhibition,"Assay 1, Ub-R110 substrate, at 20.44 µM",40.7%
Cc1ccc(NC2=CC(=O)C(=O)c3ccccc32)cc1,inhibition,"Assay 1, Ub-R110 substrate, at 12.24 µM",22.1%
CC1(C)C=C2C(=NN(c3ccccc3)C(N)=C2C#N)CO1,inhibition,"Assay 1, Ub-R110 substrate, at 23.49 µM",22.2%
O=c1[nH]c(Nc2ccccc2)cc2cc(Br)ccc12,inhibition,"Assay 1, Ub-R110 substrate, at 1.45 µM",19.9% (inactive)
CCn1nc(/C=C/c2ccccc2)nc2c(=O)n(C)c(=O)nc1-2,inhibition,"Assay 1, Ub-R110 substrate, at 0.49 µM",98%
COc1cc(Br)c(C(=O)c2nccc3cc(OC)c(OC)cc23)cc1OC,inhibition,"Assay 1, Ub-R110 substrate, at 1.13 µM",14.4% (inactive)
O=C(c1ccco1)[C@@H]1[C@@H]2C(=O)N(c3ccc(Br)cc3)C(=O)[C@@H]2C2c3ccccc3C=CN21 (stereo partly drawn),inhibition,"Assay 1, Ub-R110 substrate, at 11.01 µM",16.9% (inactive)
O=C1Cc2ccccc2C(=O)N1,inhibition,"Assay 1, Ub-R110 substrate, at 0.6 µM",57.9%
COc1ccccc1NC(=O)COC(=O)c1ccc([N+](=O)[O-])s1,inhibition,"Assay 1, Ub-R110 substrate, at 35.07 µM",26.7%
COc1cc(NC(=O)COC(=O)c2ccc([N+](=O)[O-])s2)cc(OC)c1OC,inhibition,"Assay 1, Ub-R110 substrate, at 21.72 µM",15.2% (inactive)
CC1COCC(C)N1C1=C(Cl)C(=O)c2ccccc2C1=O (stereo not drawn),inhibition,"Assay 1, Ub-R110 substrate, at 14.67 µM",31.2%
COc1cc(C(=O)c2nccc3cc(OC)c(OC)cc23)c([N+](=O)[O-])cc1OC,inhibition,"Assay 1, Ub-R110 substrate, at 4.04 µM",0.3% (inactive)
CN(C1=C(NC(=O)c2ccccc2)C(=O)c2ccccc2C1=O)C1CCS(=O)(=O)C1 (stereo not drawn),inhibition,"Assay 1, Ub-R110 substrate, at 9.59 µM",4.36% (inactive)
same,inhibition,"Assay 2, Ub-R110 substrate, at 19.18 µM",55.5%
O=C(COC(=O)c1ccc([N+](=O)[O-])s1)Nc1ncc(C(F)(F)F)cc1Cl,inhibition,"Assay 1, Ub-R110 substrate, concentration not given here",41.1%
CC(=O)c1ccc(NC(=S)Nc2cccc3cnccc23)cc1,inhibition,"Assay 1, Ub-R110 substrate, at 7.69 µM",4.4% (inactive)
